Reference: paper PMC3815685 (ACS chemical biology, 2013)

What was measured:
hCSAD = biological target: T1, hCSAD (Homo sapiens, UniProt Q9Y600); experiment: inhibition of CSA decarboxylation, OPA-HPLC of hypotaurine/taurine; format: biochemical
T1 sequence (Q9Y600 1-493): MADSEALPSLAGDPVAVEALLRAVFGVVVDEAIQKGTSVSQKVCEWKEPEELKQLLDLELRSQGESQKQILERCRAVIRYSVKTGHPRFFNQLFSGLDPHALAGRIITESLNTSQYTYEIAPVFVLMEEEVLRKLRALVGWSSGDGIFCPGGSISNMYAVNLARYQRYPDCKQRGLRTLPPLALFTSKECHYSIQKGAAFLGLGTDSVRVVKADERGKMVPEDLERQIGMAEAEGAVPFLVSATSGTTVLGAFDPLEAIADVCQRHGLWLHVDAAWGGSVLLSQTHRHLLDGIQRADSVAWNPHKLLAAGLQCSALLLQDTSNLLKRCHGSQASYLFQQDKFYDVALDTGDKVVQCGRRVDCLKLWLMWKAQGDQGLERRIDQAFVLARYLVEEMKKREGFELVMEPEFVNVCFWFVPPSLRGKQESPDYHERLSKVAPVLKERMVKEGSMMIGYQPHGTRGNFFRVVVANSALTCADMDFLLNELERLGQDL

PiCSAD = PiCSAD (Polaribacter irgensii, UniProt A4C1C8); experiment: decarboxylation, OPA-HPLC, partially purified enzyme; format: biochemical; conditions: PBS pH 7.4, 10 μM PLP, 4 °C

Row | IC50 (hCSAD) [µM] | SMILES | decarboxylation, OPA-HPLC, partially purified enzyme (PiCSAD)
1 | 1100 ± 100 | N[C@@H](CCC(=O)O)C(=O)O [L-Glu, L-glutamic acid] | 
2 |  | N[C@@H](CS(=O)O)C(=O)O [CSA, cysteine sulfinic acid] | showed decarboxylation of CSA but no detectable activity towards CA or L-Glu
